According to US20240226130A1, “4'-THIONUCLEOSIDE ANALOGUES AND THEIR PHARMACEUTICAL USE” (Gilead Sciences, Inc., priority 2022, published 2024):
Read-outs that look alike come from different tables or passages of the source. Values belong to the molecule of their own block, whether it stands above or below them.

Assays:
[1] = Cytotoxicity assay in MT-4 cells; assay type: cell-based; conditions: human, uninfected MT-4 cells, read-out: MT4 CC50
Description: Example 10: Cytotoxicity Assay in MT-4 Cells
Assays were performed as described in Example 9 except uninfected MT-4 cells were added to each well containing test compound. In addition, 10 μM puromycin was added to the last column of each assay plate to assess a base level of cytotoxicity.

HIV-1 (IIIB) = assay: Antiviral (HIV) assay in MT-4 cells; assay type: cell-based; conditions: read-out: MT4 HIV EC50
Description: Example 9: Antiviral (HIV) Assay in MT-4 Cells
Compounds were tested in a high-throughput 384-well assay format for their ability to inhibit the replication of HIV-1 (IIIB) in MT-4 cells. Compounds were serially diluted (1:3) in DMSO on 384-well polypropylene plates and further diluted 200-fold into complete RPMI media (10% FBS, 1% P/S) using the Biotek Micro Flow and Labcyte ECHO acoustic dispenser. Each plate contained up to 8 test compounds, with negative (no drug) and positive (5 μM AZT) controls. MT-4 cells were pre-treated with 10 μL of either RPMI (mock-infected) or a fresh 1:250 dilution of HIV-1 IIIB concentrated virus stock. Infected and uninfected MT-4 cells were further diluted in complete RPMI media and added to each plate using a Micro Flow dispenser. After 5 days incubation in a humidified and temperature-controlled incubator (37° C.), Cell Titer Glo (Promega) was added to the assay plates and chemiluminescence read using an Envision plate-reader. EC50 values were defined as the compound concentration that causes a 50% decrease in luminescence signal and were calculated using a sigmoidal dose-response model to generate curve fits and are shown in Table 1.

[2] = Rhesus pharmacokinetic study, oral compound 7 (plasma and PBMC); conditions: for Intracellular concentration in PBMC: LOQ 0.16 μM compound 7, 0.04 μM triphosphate
Description: The oral dose was administered via oral gavage, and after dose administration the dose apparatus was flushed with approximately 10 mL water before removal from the animal. Food was returned 4 hours after dosing. […] The K2EDTA tubes were kept chilled at approximately 5° C. until centrifugation (4° C., 5 minutes, 2000×g) to collect plasma. Centrifugation began within 1 hour of collection. Plasma samples were harvested, placed in micronic tubes, and maintained on dry ice prior to storage at −70° C. until analysis by LC-MS/MS. […] The sodium citrate tubes were then gently inverted 3-4 times and stored upright at ambient temperature until centrifugation to collect PBMCs. Centrifugation began as soon as possible following collection, within 6 hours after collection. The PBMCs were separated by centrifugation (30 minutes at 1500×g-1800×g, 18-20° C.), washed once with ice cold 0.9% NaCl and treated with red blood cell lysis buffer (3.5 g ammonium chloride and 0.036 g ammonium carbonate in 500 mL ultrapure water, prepared before first blood collection) for 10 minutes at ambient temperature. Subsequently, the cells were washed twice with ice cold 0.9% NaCl and the cell pellet maintained at −70° C. until analysis by LC-MS/MS.

[3] = Rhesus pharmacokinetic study, intravenous compound 7 (plasma and PBMC); conditions: for Intracellular concentration in PBMC: LOQ 2.5 μM compound 7, 0.63 μM triphosphate
Description: Male Indian Origin Rhesus Monkeys were used for the pharmacokinetic studies. Studies were conducted under a protocol approved by IACUC. […] The intravenous dose was administered as an approximately 30-minute infusion, and after dose administration the dose apparatus was flushed with approximately 1 mL saline before removal from the animal. Food was returned 4 hours after dosing. […] The K2EDTA tubes were kept chilled at approximately 5° C. until centrifugation (4° C., 5 minutes, 2000×g) to collect plasma. Centrifugation began within 1 hour of collection. Plasma samples were harvested, placed in micronic tubes, and maintained on dry ice prior to storage at −70° C. until analysis by LC-MS/MS. […] The sodium citrate tubes were then gently inverted 3-4 times and stored upright at ambient temperature until centrifugation to collect PBMCs. Centrifugation began as soon as possible following collection, within 6 hours after collection. The PBMCs were separated by centrifugation (30 minutes at 1500×g-1800×g, 18-20° C.), washed once with ice cold 0.9% NaCl and treated with red blood cell lysis buffer (3.5 g ammonium chloride and 0.036 g ammonium carbonate in 500 mL ultrapure water, prepared before first blood collection) for 10 minutes at ambient temperature. Subsequently the cells were washed twice with ice cold 0.9% NaCl, the cell pellet resuspended in ice cold RIPA buffer (fortified with Pierce protease ad phosphatase inhibitor tablet), snap frozen in liquid nitrogen, and maintained at −70° C. until analysis by LC-MS/MS.

[4] = Human immunodeficiency virus 1, MT4, 120 h, HIV-1 IIIB in MT-4 cells, 5 days, Cell Titer Glo
[5] = Human immunodeficiency virus 1, IIIB, MT4, 120 h
[6] = male, Indian Origin, rhesus monkey, peripheral blood mononuclear cells (PBMC), po, 7.5 mg/kg
[7] = male, Indian Origin, rhesus monkey, plasma, po, 7.5 mg/kg
[8] = male, Indian Origin, rhesus monkey, plasma, iv, 1 mg/kg

SMILES: C#C[C@]1(CO)S[C@@H](n2cnc3c(OCC)nc(N)nc32)C[C@@H]1O [Compound 4, (2R,3S,5R)-5-(2-Amino-6-ethoxy-9H-purin-9-yl)-2-ethynyl-2-(hydroxymethyl)tetrahydrothiophen-3-ol]
CC50 at 5 days [1]: 23 µM
EC50 (HIV-1 (IIIB); [4]): 0.477 µM

SMILES: C#C[C@]1(CO[P@@](=O)(N[C@@H](C)C(=O)OCC(CC)CC)Oc2ccccc2)S[C@@H](n2cnc3c(N)nc(N)nc32)C[C@@H]1O [Compound 6, 2-Ethylbutyl ((S)-(((2R,3S,5R)-5-(2,6-diamino-9H-purin-9-yl)-2-ethynyl-3-hydroxytetrahydrothiophen-2-yl)methoxy)(phenoxy)phosphoryl)-L-alaninate]
CC50 at 5 days [1]: > 25 µM
EC50 (HIV-1 (IIIB); [5]): 0.026 µM

SMILES: C#C[C@]1(CO)S[C@@H](n2cc(F)c(N)nc2=O)C[C@@H]1O [Compound 7, 4-Amino-1-((2R,4S,5R)-5-ethynyl-4-hydroxy-5-(hydroxymethyl)tetrahydrothiophen-2-yl)-5-fluoropyrimidin-2(1H)-one]
Intracellular concentration in PBMC ([2]; 48 hr after oral 7.5 mg/kg compound 7): BLQ
Intracellular concentration in PBMC ([2]; 72 hr after oral 7.5 mg/kg compound 7): BLQ
Intracellular concentration in PBMC ([2]; 120 hr after oral 7.5 mg/kg compound 7): BLQ
Intracellular concentration in PBMC ([2]; 168 hr after oral 7.5 mg/kg compound 7): BLQ
half-life ([2]; male, Indian Origin, rhesus monkey, in vivo, po, 7.5 mg/kg): 25.1 ± 16.3 h
concentration at 12 h [2, 6]: 560 ± 30 nM
concentration at 24 h [2, 6]: 370 ± 200 nM
AUC(0-t) [2, 7]: 20.1 ± 14.9 µM·h
Cmax [2, 7]: 1500 ± 350 nM
CC50 at 5 days [1]: 24 µM
Intracellular concentration in PBMC ([3]; 12 hr after intravenous 1 mg/kg compound 7): BLQ
Intracellular concentration in PBMC ([3]; 24 hr after intravenous 1 mg/kg compound 7): BLQ
Intracellular concentration in PBMC ([3]; 48 hr after intravenous 1 mg/kg compound 7): BLQ
Intracellular concentration in PBMC ([3]; 72 hr after intravenous 1 mg/kg compound 7): BLQ
Intracellular concentration in PBMC ([3]; 144 hr after intravenous 1 mg/kg compound 7): BLQ
Intracellular concentration in PBMC ([3]; 168 hr after intravenous 1 mg/kg compound 7): BLQ
half-life ([3]; male, Indian Origin, rhesus monkey, in vivo, iv, 1 mg/kg): 50 ± 26.4 h
AUC(0-t) [3, 8]: 14.6 ± 3.01 µM·h
Cmax [3, 8]: 3770 ± 310 nM
EC50 (HIV-1 (IIIB); [4]): 0.018 µM

SMILES: C#C[C@]1(CO[P@@](=O)(N[C@@H](C)C(=O)OCC(CC)CC)Oc2ccccc2)S[C@@H](n2cc(F)c(N)nc2=O)C[C@@H]1O [Compound 9, 2-Ethylbutyl ((S)-(((2R,3S,5R)-5-(4-amino-5-fluoro-2-oxopyrimidin-1(2H)-yl)-2-ethynyl-3-hydroxytetrahydrothiophen-2-yl)methoxy)(phenoxy)phosphoryl)-L-alaninate]
CC50 at 5 days [1]: 23.2 µM
EC50 (HIV-1 (IIIB); [5]): 0.145 µM

Continued, in another order:

EC50 (HIV-1 (IIIB); [4]): 0.683 µM
SMILES: C#C[C@]1(CO)S[C@@H](n2cnc3c(N)nc(N)nc32)C[C@@H]1O [Compound 1, (2R,3S,5R)-5-(2,6-Diamino-9H-purin-9-yl)-2-ethynyl-2-(hydroxymethyl)tetrahydrothiophen-3-ol]
CC50 at 5 days [1]: > 25 µM

EC50 (HIV-1 (IIIB); [4]): 4.52 µM
SMILES: C#C[C@]1(CO)S[C@@H](n2cnc3c(NC4CC4)nc(N)nc32)C[C@@H]1O [Compound 2, (2R,3S,5R)-5-(2-Amino-6-(cyclopropylamino)-9H-purin-9-yl)-2-ethynyl-2-(hydroxymethyl)tetrahydrothiophen-3-ol]
CC50 at 5 days [1]: > 25 µM

EC50 (HIV-1 (IIIB); [4]): > 25 µM
SMILES: C#C[C@]1(CO)S[C@@H](n2cnc3nc(N)nc(NC4CC4)c32)C[C@@H]1O [Compound 3, (2R,3S,5R)-5-(2-Amino-6-(cyclopropylamino)-7H-purin-7-yl)-2-ethynyl-2-(hydroxymethyl)tetrahydrothiophen-3-ol]
CC50 at 5 days [1]: > 25 µM

EC50 (HIV-1 (IIIB); [4]): > 5 µM
SMILES: C#C[C@]1(CO)S[C@@H](n2cnc3nc(N)nc(OCC)c32)C[C@@H]1O [Compound 5, (2R,3S,5R)-5-(2-Amino-6-ethoxy-7H-purin-7-yl)-2-ethynyl-2-(hydroxymethyl)tetrahydrothiophen-3-ol]
CC50 at 5 days [1]: > 25 µM
